Measurements reported in patent US11389539B2, “Hyaluronic acid derivatives into which cationic and hydrophobic groups are introduced” (CHUGAI SEIYAKU KABUSHIKI KAISHA, priority 2016, dated 2022).

Key:
[1] = system: ApoB mRNA; experiment: Suppression of gene expression by HA derivatives containing nucleic acid (transfection of HepG2 cells, quantitative real-time PCR); format: cell-based, Human; conditions: siRNA 200 nM, 24 hours
Description: ApoB (sense strand: [NT] ID No. 1, number of nucleotides: 21), antisense strand: 3'-[…] ID No. 2, number of nucleotides: 23)) was used as siRNA. First, an aqueous solution of 0.5 mg/mL siRNA and 0.1-M Hepes buffer were mixed, to which 6 mg/mL aqueous solutions of the HA derivatives obtained in Examples 2 and 4 were added to an N/P ratio of 10 or 20 and was pipetted to prepare agents containing nucleic acid (the final concentration of siRNA was 800 nM and the final concentration of Hepes was 10 mM). In order to assess suppression effects of the HA derivatives containing nucleic acid obtained in Example 8-1 on gene expression, a transfection experiment was performed to HepG2 cells. The sucrose solutions containing the HA derivatives containing nucleic acid were added to a 96-well plate. HepG2 cells suspended in DMEM supplemented with 10% FBS was added to 1×10^4 cells/well and cultured for 24 hours. The final concentration of siRNA in transfection was 200 nM. Total RNA was extracted and purified according to the manual using a QIAGEN RNeasy 96 kit. By using the RNA-to-Ct 1 Step kit manufactured by Thermo Fisher Scientific, quantitative real-time PCR was performed on the target ApoB mRNA and GAPDH mRNA as the housekeeping gene using the following primers according to the instruction manual. For the quantitative real-time PCR, Rotor-Gene Q manufactured by QIAGEN was used. […]

[2] = Assessment of intraocular migration of eye drops (fluorescent-labeled HA derivative, confocal microscope); format: in vivo; conditions: mice, 3 μL eye drops to both eyes, 1 hour, frozen sections
Description: The 10k-HA-Chol-17%/ArgNH2-10%/EtOH-67%/FL synthesized in Example 2-26 was dissolved in 10% sucrose solution to a concentration of 50 mg/mL, and 3 μL of the resulting solution was applied to both eyes of mice. Both eyeballs were taken out after 1 hour and frozen sections were prepared. […] On the other hand, carboxyfluorescein was dissolved in 10% sucrose solution to a concentration of 0.0568 mg/mL, 3 μL of the resulting solution was applied to both eyes of mice, and an observation was performed as in the case of the 10k-HA-Chol-17%/ArgNH2-10%/EtOH-67%/FL. As a result, fluorescence from carboxyfluorescein was not observed in any tissues of the eyes including the cornea, conjunctiva and ciliary body.

| Substance | expression of ApoB [1] | distribution in the conjunctiva and the ciliary body by fluorescence detection [2] | distribution in the cornea by fluorescence detection [2] |
| --- | --- | --- | --- |
| siRNA alone: ApoB siRNA, sense strand SEQ ID No. 1 (21 nucleotides), antisense strand SEQ ID No. 2 (23 nucleotides) (sense GUCAUCACACUGAAUACCAAU; antisense AUUGGUAUUCAGUGUGAUGACAC; listed as RNA, chemistry not given here) | does not have an effect of suppressing gene expression | – | – |
| carboxyfluorescein | – | not observed | not observed |
